Measurements from article PMC10108345, “Differentiating Inhibition Selectivity and Binding Affinity of Isocitrate Dehydrogenase 1 Variant Inhibitors” (Journal of Medicinal Chemistry, 2023).

Assays:
IDH1 R132H [1] = target: T1, IDH1 R132H (Homo sapiens, UniProt O75874, R132H); test: Absorbance turnover assay (NADPH, 340 nm), IDH1 R132H-catalyzed conversion of 2OG to 2HG; assay type: biochemical
T1 construct: made in house; host or cells: Escherichia coli BL21(DE3) pLyS
Protocol: IDH1 activities were measured spectrophotometrically by monitoring changes in NADPH absorbance at 340 nm.[10] […] The difference in absorbance, ΔA340, in the linear range of the reaction profile was converted to % residual activity using a DMSO control as the 100% residual activity reference. […] Experiments were performed in (at least) triplicate. The standard assay buffer for IDH1 consists of 100 mM tris–HCl, 10 mM MgCl2, 0.005% (v/v) Tween 20, pH 8.0, 0.2 mM DTT, and 0.1 mg/mL BSA. In general, compounds [25 μL, 0.4% (v/v) DMSO] were pre-incubated with IDH1 (25 μL) for 12 min, followed by addition of DL-isocitrate/2OG (25 μL) and NADP^+/NADPH (25 μL) to initiate the reaction. The substrate/cofactor concentrations were optimized by determining KM values for substrates/cofactors as described.[10]

wt IDH1 = target: T2, wt IDH1 (Homo sapiens, UniProt O75874); test: Non-denaturing MS binding, wt IDH1
T2 construct: made in house; host or cells: Escherichia coli BL21(DE3) pLyS
Protocol: (§1) Non-denaturing mass spectra were obtained using a quadrupole time-of-flight mass spectrometer (Synapt HD MS, Waters, Manchester, UK).[44],[45] […] Protein concentrations were measured using a Nanodrop spectrometer (Thermo Scientific NanoDrop One). Compounds were dissolved in MeOH to avoid DMSO interference with mass spectra. IDH1 (20 μL of 50 μM final) and the compound of interest (1–4% (v/v) MeOH) in 200 mM ammonium acetate at pH 7.5 were pipetted into wells of a sample plate of an automated chip-based nano-electrospray ion source (TriVersa Nanomate, Advion, Ithaka, NY, USA). Compounds were serially diluted in buffer and mixed with IDH1 diluted in buffer. The mixture was sprayed through a nozzle in a Nanomate chip at a spray voltage of 1.8–2.0 kV (spray backing gas pressure 0.8–1.0 psi, inlet pressure 3.8 mbar). […] Data collection and analyses used Waters MassLynx software. Mass spectra were calibrated externally using CsI solution. KD values were calculated using eq 2 as reported[46] at each compound concentration and are reported as an average across multiple concentrations. For inhibitors with a binding stoichiometry of two inhibitors/IDH dimer, the inhibitor-bound protein peak intensity used was a sum of first and second inhibitor-bound protein peak intensities. Data for the IDH1 dimer m/z = 20^+ charge state are shown. For clarity, only 2× NADPH bound protein peaks are annotated.

IDH1 R132H [2] = target: T1, IDH1 R132H; test: Non-denaturing MS binding, IDH1 R132H; settings: Figure S7b
Protocol: as §1

T1 sequence (O75874 whole entry R132H): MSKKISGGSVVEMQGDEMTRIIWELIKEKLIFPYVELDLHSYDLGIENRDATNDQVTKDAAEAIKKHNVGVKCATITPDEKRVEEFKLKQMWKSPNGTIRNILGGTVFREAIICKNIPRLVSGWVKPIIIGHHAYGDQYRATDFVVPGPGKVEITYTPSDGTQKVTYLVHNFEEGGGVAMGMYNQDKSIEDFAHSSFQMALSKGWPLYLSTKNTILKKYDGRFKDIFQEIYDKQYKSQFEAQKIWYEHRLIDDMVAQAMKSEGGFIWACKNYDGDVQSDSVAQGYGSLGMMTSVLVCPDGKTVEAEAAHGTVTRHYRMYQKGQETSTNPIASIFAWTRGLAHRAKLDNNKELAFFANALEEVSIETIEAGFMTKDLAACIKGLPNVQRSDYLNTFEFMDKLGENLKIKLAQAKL
T2 sequence (O75874 whole entry): as the sequence (O75874 whole entry R132H) above, with H132R counted along it

- Selectivity against IDH1 R132H over IDH1 wt (IDH1 R132H [1]; IC50 (IDH1 wt)/IC50 (IDH1 R132H)): >164
- IC50 (IDH1 R132H [1]; IDH1 R132H (30 nM), 2OG to 2HG, 100 mM tris-HCl, 10 mM MgCl2, pH 8.0): 61 nM
- stoichiometry, inhibitors per IDH1 dimer, wt IDH1 (wt IDH1; Figure S7a): 1
- Kd (wt IDH1; IDH 50 μM, 200 mM ammonium acetate pH 7.5): 608 µM
- stoichiometry, inhibitors per IDH1 dimer, IDH1 R132H (IDH1 R132H [2]): 1
Structure (SMILES): Cc1ccccc1C(C(=O)NC1CCCCC1)N(C(=O)Cn1ccnc1C)c1cccc(F)c1 (centres unmarked) [AGI-5198]
